The source of these data is ChEMBL document CHEMBL4007384, “Synthesis and optimization of furano[3,2-d]pyrimidines as selective spleen tyrosine kinase (Syk) inhibitors” (Bioorg Med Chem Lett, 2016).

Data set [1] has as its target T1, CYP3A4 (Homo sapiens, UniProt P08684). Put plainly: Inhibition of CYP3A4 in human liver microsomes assessed as residual activity at 10 uM measured after 30 mins relative to control. The class given is ADME. To be noted: read-out: Activity. (In general: Liver microsomes are a subcellular fraction often used to study metabolism.)
Data set [2] is described as follows: Inhibition of CDK11 (unknown origin) after 60 mins by TR-FRET assay. Details: species or system Homo sapiens; call rule not given here. For orientation: Time-resolved FRET reads energy transfer from a long-lived donor to a nearby acceptor.
The target in data set [3] is Tyrosine-protein kinase ABL1 (Homo sapiens, UniProt P00519). In words: Inhibition of ABL (unknown origin) after 60 mins by TR-FRET assay.
Sequence of Tyrosine-protein kinase ABL1 (P00519 whole entry): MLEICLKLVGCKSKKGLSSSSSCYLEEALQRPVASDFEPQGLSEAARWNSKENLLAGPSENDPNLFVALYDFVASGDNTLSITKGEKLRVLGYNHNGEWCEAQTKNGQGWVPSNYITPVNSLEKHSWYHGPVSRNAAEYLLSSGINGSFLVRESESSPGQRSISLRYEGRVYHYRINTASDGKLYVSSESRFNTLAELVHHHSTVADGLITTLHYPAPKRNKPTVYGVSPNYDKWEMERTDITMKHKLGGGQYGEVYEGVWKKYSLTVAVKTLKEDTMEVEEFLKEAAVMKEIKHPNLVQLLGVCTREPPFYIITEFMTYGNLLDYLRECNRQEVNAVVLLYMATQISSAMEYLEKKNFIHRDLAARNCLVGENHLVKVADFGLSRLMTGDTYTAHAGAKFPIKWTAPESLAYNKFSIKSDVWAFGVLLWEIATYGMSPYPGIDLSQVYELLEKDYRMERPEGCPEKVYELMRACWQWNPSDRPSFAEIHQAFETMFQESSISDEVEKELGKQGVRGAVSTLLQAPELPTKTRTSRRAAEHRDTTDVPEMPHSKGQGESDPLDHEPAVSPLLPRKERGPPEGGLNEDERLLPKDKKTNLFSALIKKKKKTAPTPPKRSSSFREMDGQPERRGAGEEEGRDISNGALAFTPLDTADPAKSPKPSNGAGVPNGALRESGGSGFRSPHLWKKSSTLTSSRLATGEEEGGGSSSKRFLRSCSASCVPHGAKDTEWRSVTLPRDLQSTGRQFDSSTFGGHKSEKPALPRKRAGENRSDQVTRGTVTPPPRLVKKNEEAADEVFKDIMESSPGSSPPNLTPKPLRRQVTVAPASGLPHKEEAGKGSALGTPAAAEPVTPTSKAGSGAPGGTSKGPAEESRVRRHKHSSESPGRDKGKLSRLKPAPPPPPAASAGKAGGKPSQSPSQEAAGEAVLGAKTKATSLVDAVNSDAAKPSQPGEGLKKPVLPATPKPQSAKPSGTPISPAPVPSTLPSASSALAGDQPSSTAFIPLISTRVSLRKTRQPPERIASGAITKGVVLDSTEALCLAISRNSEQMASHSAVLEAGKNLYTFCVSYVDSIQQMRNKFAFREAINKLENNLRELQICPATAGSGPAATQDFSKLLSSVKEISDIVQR
Data set [4] addresses High affinity nerve growth factor receptor (Homo sapiens, UniProt P04629). Put plainly: Inhibition of TRKA (unknown origin) after 60 mins by TR-FRET assay.
The target of data set [5] is AMP-activated protein kinase, AMPK. Put plainly: Inhibition of AMPK (unknown origin) after 60 mins by TR-FRET assay. Details: species or system Homo sapiens.
The target of data set [6] is T1, CYP3A4. Put plainly: Inhibition of CYP3A4 in human liver microsomes assessed as residual activity at 50 uM measured immediately relative to control. The class given is ADME. To be noted: read-out: Activity.
Data set [7] addresses Serine/threonine-protein kinase B-raf (Homo sapiens, UniProt P15056). In words: Inhibition of BRAF (unknown origin) after 60 mins by TR-FRET assay.
Data set [8] deals with Dual specificity mitogen-activated protein kinase kinase 3 (Homo sapiens, UniProt P46734). Put plainly: Inhibition of MAP2K3 (unknown origin) after 60 mins by TR-FRET assay.
Sequence of Dual specificity mitogen-activated protein kinase kinase 3 (P46734 whole entry): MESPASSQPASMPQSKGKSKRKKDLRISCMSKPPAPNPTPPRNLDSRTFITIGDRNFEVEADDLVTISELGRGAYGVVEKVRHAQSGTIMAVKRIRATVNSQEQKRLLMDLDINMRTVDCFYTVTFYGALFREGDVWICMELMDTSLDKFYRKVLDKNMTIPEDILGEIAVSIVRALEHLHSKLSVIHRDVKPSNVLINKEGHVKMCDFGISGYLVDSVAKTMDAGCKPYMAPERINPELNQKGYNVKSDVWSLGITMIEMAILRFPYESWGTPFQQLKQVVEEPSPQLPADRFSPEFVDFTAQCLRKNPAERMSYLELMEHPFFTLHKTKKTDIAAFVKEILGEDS
In data set [9] the target is T1, CYP3A4. In words: Inhibition of CYP3A4 in human liver microsomes assessed as residual activity at 50 uM measured after 30 mins relative to control. The class given is ADME. The settings on record: read-out: Activity.
The target of data set [10] is ALK tyrosine kinase receptor (Homo sapiens, UniProt Q9UM73). Put plainly: Inhibition of ALK (unknown origin) after 60 mins by TR-FRET assay.
Sequence of ALK tyrosine kinase receptor (Q9UM73 whole entry): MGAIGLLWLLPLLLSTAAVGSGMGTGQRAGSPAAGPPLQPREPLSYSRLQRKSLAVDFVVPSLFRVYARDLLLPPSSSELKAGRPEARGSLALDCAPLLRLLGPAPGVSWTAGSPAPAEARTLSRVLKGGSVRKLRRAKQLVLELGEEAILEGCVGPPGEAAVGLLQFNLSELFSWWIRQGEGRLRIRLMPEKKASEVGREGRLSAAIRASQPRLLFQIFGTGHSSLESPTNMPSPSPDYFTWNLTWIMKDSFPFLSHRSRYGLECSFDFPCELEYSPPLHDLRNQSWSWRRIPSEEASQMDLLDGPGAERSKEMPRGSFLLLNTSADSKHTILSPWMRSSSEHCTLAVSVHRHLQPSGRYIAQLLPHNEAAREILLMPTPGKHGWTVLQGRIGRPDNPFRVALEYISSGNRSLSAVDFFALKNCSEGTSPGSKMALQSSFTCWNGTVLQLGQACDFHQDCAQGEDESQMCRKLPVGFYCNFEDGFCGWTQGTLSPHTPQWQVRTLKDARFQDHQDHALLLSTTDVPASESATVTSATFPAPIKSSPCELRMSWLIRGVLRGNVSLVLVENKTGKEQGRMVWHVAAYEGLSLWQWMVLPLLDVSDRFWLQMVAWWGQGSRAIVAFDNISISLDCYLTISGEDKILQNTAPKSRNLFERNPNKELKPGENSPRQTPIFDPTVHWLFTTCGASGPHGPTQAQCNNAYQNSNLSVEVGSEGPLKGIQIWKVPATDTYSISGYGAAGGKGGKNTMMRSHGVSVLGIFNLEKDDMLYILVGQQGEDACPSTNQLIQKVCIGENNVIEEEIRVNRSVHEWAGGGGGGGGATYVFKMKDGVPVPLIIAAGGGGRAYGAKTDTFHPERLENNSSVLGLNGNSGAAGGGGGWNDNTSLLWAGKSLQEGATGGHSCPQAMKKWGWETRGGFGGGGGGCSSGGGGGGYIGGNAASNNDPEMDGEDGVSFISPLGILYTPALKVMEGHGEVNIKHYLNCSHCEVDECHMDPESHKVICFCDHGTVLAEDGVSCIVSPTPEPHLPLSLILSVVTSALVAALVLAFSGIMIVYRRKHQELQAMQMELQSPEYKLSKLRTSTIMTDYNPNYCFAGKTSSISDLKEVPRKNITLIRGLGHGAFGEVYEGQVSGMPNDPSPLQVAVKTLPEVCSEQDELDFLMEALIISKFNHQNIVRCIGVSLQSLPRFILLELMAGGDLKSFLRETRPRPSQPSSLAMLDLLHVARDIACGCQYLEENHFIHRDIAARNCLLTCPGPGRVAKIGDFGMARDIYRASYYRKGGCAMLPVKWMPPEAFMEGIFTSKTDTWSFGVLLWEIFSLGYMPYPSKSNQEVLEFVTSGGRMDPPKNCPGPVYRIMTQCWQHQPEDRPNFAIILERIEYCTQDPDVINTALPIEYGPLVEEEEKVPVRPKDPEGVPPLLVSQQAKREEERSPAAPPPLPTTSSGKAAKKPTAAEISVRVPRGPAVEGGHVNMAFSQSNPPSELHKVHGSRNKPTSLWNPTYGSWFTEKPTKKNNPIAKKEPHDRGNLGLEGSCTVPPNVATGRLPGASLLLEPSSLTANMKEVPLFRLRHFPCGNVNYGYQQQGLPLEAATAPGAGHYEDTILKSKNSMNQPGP
Data set [11] concerns the target T1, CYP3A4. Put plainly: Inhibition of CYP3A4 in human liver microsomes assessed as residual activity at 10 uM measured immediately relative to control. To be noted: read-out: Activity. The class given is ADME.
Data set [12] has as its target Protein kinase C zeta type (Homo sapiens, UniProt Q05513). Put plainly: Inhibition of PKCzeta (unknown origin) after 60 mins by TR-FRET assay.
The target in data set [13] is Serine/threonine-protein kinase 16 (Homo sapiens, UniProt O75716). In words: Inhibition of STK16 (unknown origin) after 60 mins by TR-FRET assay.
Sequence of Serine/threonine-protein kinase 16 (O75716 whole entry): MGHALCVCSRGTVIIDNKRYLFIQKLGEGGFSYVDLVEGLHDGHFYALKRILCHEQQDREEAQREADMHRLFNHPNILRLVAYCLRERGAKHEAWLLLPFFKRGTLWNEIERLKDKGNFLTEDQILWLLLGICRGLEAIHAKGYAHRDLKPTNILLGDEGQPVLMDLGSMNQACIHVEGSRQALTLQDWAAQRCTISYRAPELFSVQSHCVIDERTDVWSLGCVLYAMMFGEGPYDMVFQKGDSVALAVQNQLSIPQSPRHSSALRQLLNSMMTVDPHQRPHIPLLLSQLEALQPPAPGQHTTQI
Data set [14] in a line: Solubility in pH 5 FeSSIF at 0.2 mg sonicated for 10 mins followed by incubation for 2 days by HPLC analysis. The class given is physicochemical.
The target in data set [15] is T2, Aurora kinase A (Homo sapiens, UniProt O14965).
T2 sequence (O14965 whole entry): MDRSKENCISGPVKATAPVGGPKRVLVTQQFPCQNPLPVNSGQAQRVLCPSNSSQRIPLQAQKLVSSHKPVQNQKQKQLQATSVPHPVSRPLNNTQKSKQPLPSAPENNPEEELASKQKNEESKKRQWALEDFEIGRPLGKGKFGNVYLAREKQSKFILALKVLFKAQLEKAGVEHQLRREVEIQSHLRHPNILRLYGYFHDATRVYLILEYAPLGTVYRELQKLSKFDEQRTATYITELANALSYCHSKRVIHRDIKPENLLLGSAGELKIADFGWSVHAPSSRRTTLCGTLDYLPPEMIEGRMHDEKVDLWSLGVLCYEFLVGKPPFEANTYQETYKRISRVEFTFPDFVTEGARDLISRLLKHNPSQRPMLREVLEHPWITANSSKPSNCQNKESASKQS
Put plainly: Inhibition of AURKA (unknown origin) after 60 mins by TR-FRET assay.

The target in data set [16] is Epidermal growth factor receptor (Homo sapiens, UniProt P00533). Put plainly: Inhibition of EGFR (unknown origin) after 60 mins by TR-FRET assay.
The target of data set [17] is RAC-alpha serine/threonine-protein kinase (Homo sapiens, UniProt P31749). In words: Inhibition of AKT (unknown origin) after 60 mins by TR-FRET assay.
Data set [18] deals with Serine/threonine-protein kinase pim-2 (Homo sapiens, UniProt Q9P1W9). Put plainly: Inhibition of PIM2 (unknown origin) after 60 mins by TR-FRET assay.
Sequence of Serine/threonine-protein kinase pim-2 (Q9P1W9 whole entry): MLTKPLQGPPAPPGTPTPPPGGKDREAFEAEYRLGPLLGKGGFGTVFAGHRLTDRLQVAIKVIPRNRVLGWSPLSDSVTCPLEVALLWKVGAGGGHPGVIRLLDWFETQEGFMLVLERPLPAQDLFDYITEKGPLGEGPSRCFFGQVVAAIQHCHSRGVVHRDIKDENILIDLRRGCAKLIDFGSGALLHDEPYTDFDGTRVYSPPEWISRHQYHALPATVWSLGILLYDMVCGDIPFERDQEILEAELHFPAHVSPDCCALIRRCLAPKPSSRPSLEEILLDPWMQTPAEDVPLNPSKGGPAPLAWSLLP
The target in data set [19] is Serine/threonine-protein kinase Sgk1 (Homo sapiens, UniProt O00141). Put plainly: Inhibition of SGK1 (unknown origin) after 60 mins by TR-FRET assay.
Data set [20] is described as follows: Unbound clearance in human microsomes. The class given is ADME, Microsome.
Data set [21] deals with Mitogen-activated protein kinase kinase kinase 10 (Homo sapiens, UniProt Q02779). In words: Inhibition of MAP3K10 (unknown origin) after 60 mins by TR-FRET assay.
The target of data set [22] is Epithelial discoidin domain-containing receptor 1 (Homo sapiens, UniProt Q08345). Put plainly: Inhibition of DDR1 (unknown origin) after 60 mins by TR-FRET assay.
Data set [23] deals with Cyclin-dependent kinase 2 (Homo sapiens, UniProt P24941). Put plainly: Inhibition of CDK2 (unknown origin) after 60 mins by TR-FRET assay.
Data set [24] concerns the target Tyrosine-protein kinase SYK (Homo sapiens, UniProt P43405).
Description: Inhibition of C-terminal His-tagged Syk catalytic domain (356 to 635 residues) (unknown origin) using biotin-TYR1 as substrate after 60 mins by TR-FRET assay
Data set [25] concerns the target T3, Dual specificity protein kinase TTK (Homo sapiens, UniProt P33981).
T3 sequence (P33981 whole entry): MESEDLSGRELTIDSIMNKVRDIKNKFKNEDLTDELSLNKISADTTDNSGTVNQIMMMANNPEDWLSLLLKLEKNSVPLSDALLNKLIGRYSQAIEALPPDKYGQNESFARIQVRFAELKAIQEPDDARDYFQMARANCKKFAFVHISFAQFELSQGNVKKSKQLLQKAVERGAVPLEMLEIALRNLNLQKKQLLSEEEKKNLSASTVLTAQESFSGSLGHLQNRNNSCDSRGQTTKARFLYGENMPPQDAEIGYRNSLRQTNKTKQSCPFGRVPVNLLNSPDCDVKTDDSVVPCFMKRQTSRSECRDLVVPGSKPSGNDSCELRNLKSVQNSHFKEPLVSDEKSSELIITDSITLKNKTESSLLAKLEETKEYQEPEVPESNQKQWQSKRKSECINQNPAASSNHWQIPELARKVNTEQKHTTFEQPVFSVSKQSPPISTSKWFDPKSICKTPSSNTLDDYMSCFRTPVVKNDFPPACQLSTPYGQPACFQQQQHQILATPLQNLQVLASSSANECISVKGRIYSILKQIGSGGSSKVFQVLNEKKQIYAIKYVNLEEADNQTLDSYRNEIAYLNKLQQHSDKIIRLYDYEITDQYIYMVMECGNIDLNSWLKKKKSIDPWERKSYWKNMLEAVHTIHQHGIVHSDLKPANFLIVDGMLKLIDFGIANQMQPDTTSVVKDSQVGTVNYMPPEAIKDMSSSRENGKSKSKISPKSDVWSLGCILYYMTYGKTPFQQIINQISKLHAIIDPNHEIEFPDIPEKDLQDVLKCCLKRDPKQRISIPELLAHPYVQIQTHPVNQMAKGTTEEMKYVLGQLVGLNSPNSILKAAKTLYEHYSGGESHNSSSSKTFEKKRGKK
In words: Inhibition of TTK (unknown origin) after 60 mins by TR-FRET assay.

The target of data set [26] is Cytochrome P450 3A4 (Homo sapiens, UniProt P08684). Put plainly: Time-dependent inhibition of CYP3A4 in human liver microsomes at 10 to 50 uM. The class given is ADME.
Sequence of Cytochrome P450 3A4 (P08684 whole entry): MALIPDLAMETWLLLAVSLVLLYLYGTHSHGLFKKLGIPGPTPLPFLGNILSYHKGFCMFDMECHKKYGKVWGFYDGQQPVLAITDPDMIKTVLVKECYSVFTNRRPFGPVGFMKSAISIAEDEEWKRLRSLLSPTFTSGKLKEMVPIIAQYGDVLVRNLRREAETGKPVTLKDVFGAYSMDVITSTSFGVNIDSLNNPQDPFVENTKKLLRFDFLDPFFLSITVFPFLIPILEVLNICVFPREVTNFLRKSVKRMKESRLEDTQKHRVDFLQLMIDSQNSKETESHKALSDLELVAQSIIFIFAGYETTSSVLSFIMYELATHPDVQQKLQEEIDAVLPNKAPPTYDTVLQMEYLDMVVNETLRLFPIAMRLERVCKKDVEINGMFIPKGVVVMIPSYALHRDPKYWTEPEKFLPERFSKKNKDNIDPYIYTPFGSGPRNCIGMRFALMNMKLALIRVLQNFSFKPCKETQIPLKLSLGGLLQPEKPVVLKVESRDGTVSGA

Converted amounts (≈) assume the structure as drawn. Some results are limits rather than exact numbers.

T1 sequence (P08684 whole entry): as above
Sequence of High affinity nerve growth factor receptor (P04629 whole entry): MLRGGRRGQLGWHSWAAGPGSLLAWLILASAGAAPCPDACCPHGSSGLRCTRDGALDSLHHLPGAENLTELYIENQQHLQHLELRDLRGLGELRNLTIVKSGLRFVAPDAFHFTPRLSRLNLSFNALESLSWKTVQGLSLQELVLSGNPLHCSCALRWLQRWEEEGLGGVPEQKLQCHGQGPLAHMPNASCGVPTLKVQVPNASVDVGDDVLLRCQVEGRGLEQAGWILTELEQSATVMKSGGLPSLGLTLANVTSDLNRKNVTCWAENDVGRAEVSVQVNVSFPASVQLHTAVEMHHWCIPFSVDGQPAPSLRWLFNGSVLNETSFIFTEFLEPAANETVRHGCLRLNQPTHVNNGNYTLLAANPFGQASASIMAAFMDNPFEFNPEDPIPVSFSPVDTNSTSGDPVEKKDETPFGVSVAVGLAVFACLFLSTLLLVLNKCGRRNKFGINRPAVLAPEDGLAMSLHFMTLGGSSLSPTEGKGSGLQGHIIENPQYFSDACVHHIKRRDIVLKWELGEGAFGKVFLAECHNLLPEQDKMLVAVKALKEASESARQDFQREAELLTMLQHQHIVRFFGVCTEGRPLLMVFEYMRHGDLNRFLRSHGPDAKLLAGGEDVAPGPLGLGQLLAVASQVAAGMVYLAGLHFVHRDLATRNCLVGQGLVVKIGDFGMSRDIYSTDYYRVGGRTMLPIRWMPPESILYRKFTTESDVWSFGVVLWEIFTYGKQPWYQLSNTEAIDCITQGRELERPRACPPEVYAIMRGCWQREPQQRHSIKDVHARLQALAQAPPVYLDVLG

As usually defined, the IC50 is the midpoint of a concentration-inhibition curve. A lower IC50 goes with greater potency in that assay. The term solubility denotes the dissolved amount per volume that the medium holds. A low value points to little dissolved substance. For the compound `CC1(C)OCC(=O)Nc2cc(Nc3nc(NCC(F)(F)F)c4occc4n3)ccc21`, in [1], the activity at 0.5 h, 10 µM is 81%. Further, the IC50 in data set [2] is more than 10 µM; in data set [3] it was 0.408 µM; in data set [4] it was 5.4 µM; in data set [5], more than 10 µM; in data set [7] it was more than 10 µM; in data set [8] it was more than 10 µM. Further, the concentration for half-maximal inhibition (IC50) is more than 10 µM in [10]; more than 10 µM in [12]; 0.885 µM in data set [13]; 4.05 µM in data set [15]; more than 10 µM in data set [16]; more than 10 µM in [17]. Moreover, the IC50 in [18] is more than 10 µM; in [19] it was more than 10 µM; in [21] it was 4.55 µM; in [22] it was more than 10 µM; in data set [23], more than 10 µM. In addition, the activity at 0 min, 50 µM in data set [6] amounted to 92%. Besides, the activity at 0.5 h, 50 µM in data set [9] was 75%. In [11], the activity at 0 min, 10 µM was found to be 91%. The solubility at 48 h in [14] was determined as 4.96 µM (≈ 2.09 µg/mL). Also, in data set [20], the CL free was 170 mL/min/kg.
In the case of `FC(F)(F)CNc1nc(Nc2ccc3cn[nH]c3c2)nc2ccoc12`, the IC50 in data set [4] was more than 10 µM; in [5] it was more than 10 µM; in data set [10] it was 7.63 µM; in [24] it was 0.081 µM; in data set [15], more than 10 µM.
Take `Cc1n[nH]c2cc(Nc3nc(NC4CC4)c4occc4n3)ccc12`: the activity at 0.5 h, 10 µM in [1] amounted to 51%. The IC50 in data set [4] was more than 10 µM; in [25] it was 2.16 µM; in [5], more than 10 µM; in data set [13] it was 4.5 µM; in [15], more than 10 µM. For the same compound, the activity at 0 min, 50 µM in [6] was 87%. Also, the activity at 0.5 h, 50 µM in data set [9] was 28%. The activity at 0 min, 10 µM in [11] came out at 94%. Moreover, in data set [14], the solubility at 48 h is 99 µM (≈ 31.7 µg/mL). The TDI result in [26] was “Active”.
`FC(F)(F)CNc1nc(Nc2ccc(N3CCOCC3)c(Cl)c2)nc2ccoc12`: the IC50 in [3] is 2.75 µM; in data set [4], more than 10 µM; in data set [25], 1.84 µM; in data set [5], more than 10 µM; in data set [10], more than 10 µM; in [24], 0.061 µM. Besides, in data set [15], the IC50 is more than 10 µM.
